The assay concerns the target T1, BRM (Homo sapiens, UniProt P51531).
T1 construct: In-Cell Western Screen of BRM Degradation in SW1573 Cells; endogenous in cells; host or cells: SW1573
Put plainly: In-cell Western screen of BRM degradation in SW1573 cells (Dmax and DC50). The assay is classed as cell-based. The note with it: BRM degradation, SW1573 cells; for DC50: read-out: DC50; for Dmax: tested at the top concentration of between 0.3 and 10 μM, read-out: Dmax (%) (% degraded). In a few lines:
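SW1573, overnight cpd exposure (18-20 h), 0.1% DMSO final. PFA fix, 0.5% Triton permeabilization, block; IR secondaries at 800/680 nm. Odyssey read → Dmax, DC50.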

Structures are written as SMILES.

T1 sequence (P51531 whole entry): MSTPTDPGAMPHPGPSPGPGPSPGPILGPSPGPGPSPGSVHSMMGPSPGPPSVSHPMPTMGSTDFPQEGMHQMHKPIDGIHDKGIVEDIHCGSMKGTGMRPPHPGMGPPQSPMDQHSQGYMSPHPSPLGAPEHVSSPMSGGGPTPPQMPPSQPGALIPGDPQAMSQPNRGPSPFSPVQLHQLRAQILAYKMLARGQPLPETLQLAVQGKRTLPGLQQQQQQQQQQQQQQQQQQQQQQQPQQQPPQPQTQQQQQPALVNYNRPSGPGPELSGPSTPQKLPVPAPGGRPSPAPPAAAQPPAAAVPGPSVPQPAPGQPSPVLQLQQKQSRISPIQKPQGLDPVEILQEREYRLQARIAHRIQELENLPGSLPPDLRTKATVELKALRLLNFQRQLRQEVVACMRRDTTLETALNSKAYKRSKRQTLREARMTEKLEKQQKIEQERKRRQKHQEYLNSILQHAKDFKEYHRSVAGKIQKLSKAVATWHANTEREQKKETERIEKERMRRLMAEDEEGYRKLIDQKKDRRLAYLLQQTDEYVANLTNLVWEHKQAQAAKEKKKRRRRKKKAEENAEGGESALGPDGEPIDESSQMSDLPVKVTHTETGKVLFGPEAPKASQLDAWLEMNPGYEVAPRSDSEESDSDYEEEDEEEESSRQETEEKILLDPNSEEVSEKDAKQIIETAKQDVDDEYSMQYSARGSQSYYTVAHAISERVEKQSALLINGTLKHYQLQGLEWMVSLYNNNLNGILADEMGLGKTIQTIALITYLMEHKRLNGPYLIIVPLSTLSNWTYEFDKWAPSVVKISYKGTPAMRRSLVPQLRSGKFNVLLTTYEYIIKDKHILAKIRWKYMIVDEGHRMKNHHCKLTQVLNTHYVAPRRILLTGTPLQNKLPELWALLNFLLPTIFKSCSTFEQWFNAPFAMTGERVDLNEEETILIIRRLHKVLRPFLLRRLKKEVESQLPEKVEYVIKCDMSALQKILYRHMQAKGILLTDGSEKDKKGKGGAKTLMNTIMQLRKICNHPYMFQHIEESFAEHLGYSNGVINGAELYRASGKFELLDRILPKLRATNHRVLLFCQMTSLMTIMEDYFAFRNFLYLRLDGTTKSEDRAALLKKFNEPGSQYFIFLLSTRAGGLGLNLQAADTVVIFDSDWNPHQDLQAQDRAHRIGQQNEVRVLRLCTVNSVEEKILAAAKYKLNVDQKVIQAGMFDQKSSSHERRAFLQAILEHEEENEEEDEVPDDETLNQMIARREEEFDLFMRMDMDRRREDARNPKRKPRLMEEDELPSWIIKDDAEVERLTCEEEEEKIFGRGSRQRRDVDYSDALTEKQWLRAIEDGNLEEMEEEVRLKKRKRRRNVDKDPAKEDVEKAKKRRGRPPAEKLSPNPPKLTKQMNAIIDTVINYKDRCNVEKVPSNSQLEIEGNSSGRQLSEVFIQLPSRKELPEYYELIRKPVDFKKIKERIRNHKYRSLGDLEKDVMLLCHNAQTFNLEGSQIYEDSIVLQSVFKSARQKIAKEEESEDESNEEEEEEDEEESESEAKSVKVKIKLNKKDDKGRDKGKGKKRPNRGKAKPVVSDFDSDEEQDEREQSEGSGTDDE

Take `CC(C)[C@H](C(=O)N1C[C@H](O)C[C@H]1C(=O)N[C@@H](C)c1ccc(-n2ccnc2CO)cc1)c1cc(OCC#Cc2ccc(O[C@H]3C[C@H](Oc4cc(N5C6CCC5CN(c5cc(-c7ccccc7O)nnc5N)C6)ccn4)C3)cn2)no1` [compound 284, (2S,4R)-1-((2S)-2-(3-((3-(5-((1r,3S)-3-((4-(3-(3-amino-6-(2-hydroxyphenyl)pyridazin-4-yl)-3,8-diazabicyclo[3.2.1]octan-8-yl)pyridin-2-yl)oxy)cyclobutoxy)pyridin-2-yl)prop-2-yn-1-yl)oxy)isoxazol-5-yl)-3-methylbutanoyl)-4-hydroxy-N-((S)-1-(4-(2-(hydroxymethyl)-1H-imidazol-1-yl)phenyl)ethyl)pyrrolidine-2-carboxamide]: the DC50 (in general, the concentration giving 50% degradation) was 10 to 30 nM and the Dmax (as a rule, the greatest extent of degradation seen) was more than 75%.
For `CC(C)[C@@H](C(=O)N1C[C@H](O)C[C@H]1C(=O)N[C@@H](C)c1ccc(-n2ccnc2CO)cc1)c1cc(OCC#Cc2ccc(O[C@H]3C[C@H](Oc4cc(N5C6CCC5CN(c5cc(-c7ccccc7O)nnc5N)C6)ccn4)C3)cn2)no1` [compound 285, (2S,4R)-1-((2R)-2-(3-((3-(5-((1r,3R)-3-((4-(3-(3-amino-6-(2-hydroxyphenyl)pyridazin-4-yl)-3,8-diazabicyclo[3.2.1]octan-8-yl)pyridin-2-yl)oxy)cyclobutoxy)pyridin-2-yl)prop-2-yn-1-yl)oxy)isoxazol-5-yl)-3-methylbutanoyl)-4-hydroxy-N-((S)-1-(4-(2-(hydroxymethyl)-1H-imidazol-1-yl)phenyl)ethyl)pyrrolidine-2-carboxamide] the same measures were less than 2.5 nM and more than 75%.
For `Cc1ncsc1-c1ccc([C@H](C)NC(=O)[C@@H]2C[C@@H](O)CN2C(=O)[C@@H](c2cc(OCC(=O)N3CCC(O[C@H]4C[C@H](Oc5cc(N6C7CCC6CN(c6cc(-c8ccccc8O)nnc6N)C7)ccn5)C4)CC3)no2)C(C)C)cn1` [compound 286, (2S,4R)-1-((2R)-2-(3-(2-(4-((1r,3R)-3-((4-(3-(3-amino-6-(2-hydroxyphenyl)pyridazin-4-yl)-3,8-diazabicyclo[3.2.1]octan-8-yl)pyridin-2-yl)oxy)cyclobutoxy)piperidin-1-yl)-2-oxoethoxy)isoxazol-5-yl)-3-methylbutanoyl)-4-hydroxy-N-((S)-1-(6-(4-methylthiazol-5-yl)pyridin-3-yl)ethyl)pyrrolidine-2-carboxamide], in that order: 2.5 to 10 nM and more than 75%.
On to `Cc1ncsc1-c1ccc([C@H](C)NC(=O)[C@@H]2C[C@@H](O)CN2C(=O)[C@H](c2cc(OCCC3CCN(C[C@H]4C[C@H](Oc5cc(N6C7CCC6CN(c6cc(-c8ccccc8O)nnc6N)C7)ccn5)C4)CC3)no2)C(C)C)cn1` [compound 287, (2S,4R)-1-((2S)-2-(3-(2-(1-(((1r,3S)-3-((4-(3-(3-amino-6-(2-hydroxyphenyl)pyridazin-4-yl)-3,8-diazabicyclo[3.2.1]octan-8-yl)pyridin-2-yl)oxy)cyclobutyl)methyl)piperidin-4-yl)ethoxy)isoxazol-5-yl)-3-methylbutanoyl)-4-hydroxy-N-((S)-1-(6-(4-methylthiazol-5-yl)pyridin-3-yl)ethyl)pyrrolidine-2-carboxamide], for which the DC50 is more than 30 nM.
As for `Cc1ncsc1-c1ccc([C@H](C)NC(=O)[C@@H]2C[C@@H](O)CN2C(=O)[C@@H](c2cc(OCCC3CCN(C[C@H]4C[C@H](Oc5cc(N6C7CCC6CN(c6cc(-c8ccccc8O)nnc6N)C7)ccn5)C4)CC3)no2)C(C)C)cn1` [compound 288, (2S,4R)-1-((2R)-2-(3-(2-(1-(((1r,3R)-3-((4-(3-(3-amino-6-(2-hydroxyphenyl)pyridazin-4-yl)-3,8-diazabicyclo[3.2.1]octan-8-yl)pyridin-2-yl)oxy)cyclobutyl)methyl)piperidin-4-yl)ethoxy)isoxazol-5-yl)-3-methylbutanoyl)-4-hydroxy-N-((S)-1-(6-(4-methylthiazol-5-yl)pyridin-3-yl)ethyl)pyrrolidine-2-carboxamide], the DC50 was less than 2.5 nM and the Dmax is more than 75%.
`COc1cc(C(C(=O)N2C[C@H](O)C[C@H]2C(=O)N[C@@H](C)c2ccc(-c3scnc3C)cc2)C(C)CC(=O)N(C)CCOc2cc(N3C4CCC3CN(c3cc(-c5ccccc5O)nnc3N)C4)ccn2)on1` (stereo partly drawn) [compound 289, (2S,4R)-1-(5-((2-((4-(3-(3-amino-6-(2-hydroxyphenyl)pyridazin-4-yl)-3,8-diazabicyclo[3.2.1]octan-8-yl)pyridin-2-yl)oxy)ethyl)(methyl)amino)-2-(3-methoxyisoxazol-5-yl)-3-methyl-5-oxopentanoyl)-4-hydroxy-N-((S)-1-(4-(4-methylthiazol-5-yl)phenyl)ethyl)pyrrolidine-2-carboxamide]: the DC50 is more than 30 nM.
For the molecule `Cc1ncsc1-c1ccc([C@H](CN)NC(=O)[C@@H]2C[C@@H](O)CN2C(=O)[C@H](c2cc(OCCN3CCN(CCOc4cc(N5C6CCC5CN(c5cc(-c7ccccc7O)nnc5N)C6)ccn4)CC3)no2)C(C)C)cc1` [compound 290, (2S,4R)-N-((R)-2-amino-1-(4-(4-methylthiazol-5-yl)phenyl)ethyl)-1-((2S)-2-(3-(2-(4-(2-((4-(3-(3-amino-6-(2-hydroxyphenyl)pyridazin-4-yl)-3,8-diazabicyclo[3.2.1]octan-8-yl)pyridin-2-yl)oxy)ethyl)piperazin-1-yl)ethoxy)isoxazol-5-yl)-3-methylbutanoyl)-4-hydroxypyrrolidine-2-carboxamide], the DC50 was more than 30 nM.
In the case of `Cc1ncsc1-c1ccc([C@H](COCC(C)C)NC(=O)[C@@H]2C[C@@H](O)CN2C(=O)[C@H](c2cc(OCCN3CCN(CCOc4cc(N5C6CCC5CN(c5cc(-c7ccccc7O)nnc5N)C6)ccn4)CC3)no2)C(C)C)cc1` [compound 291, (2S,4R)-1-((2S)-2-(3-(2-(4-(2-((4-(3-(3-amino-6-(2-hydroxyphenyl)pyridazin-4-yl)-3,8-diazabicyclo[3.2.1]octan-8-yl)pyridin-2-yl)oxy)ethyl)piperazin-1-yl)ethoxy)isoxazol-5-yl)-3-methylbutanoyl)-4-hydroxy-N-((R)-2-isobutoxy-1-(4-(4-methylthiazol-5-yl)phenyl)ethyl)pyrrolidine-2-carboxamide], the DC50 is more than 30 nM.
On the same count and under the same terms, then `CC(C)[C@H](C(=O)N1C[C@H](O)C[C@H]1C(=O)N[C@@H](C)c1ccc(-n2ccnn2)cc1)c1cc(OCCN2CCN(CCOc3cc(N4C5CCC4CN(c4cc(-c6ccccc6O)nnc4N)C5)ccn3)CC2)no1` [compound 292, (2S,4R)-N-((S)-1-(4-(1H-1,2,3-triazol-1-yl)phenyl)ethyl)-1-((2S)-2-(3-(2-(4-(2-((4-(3-(3-amino-6-(2-hydroxyphenyl)pyridazin-4-yl)-3,8-diazabicyclo[3.2.1]octan-8-yl)pyridin-2-yl)oxy)ethyl)piperazin-1-yl)ethoxy)isoxazol-5-yl)-3-methylbutanoyl)-4-hydroxypyrrolidine-2-carboxamide], with more than 30 nM.
With `CC(C)[C@@H](C(=O)N1C[C@H](O)C[C@H]1C(=O)N[C@@H](C)c1ccc(-n2ccnn2)cc1)c1cc(OCCN2CCN(CCOc3cc(N4C5CCC4CN(c4cc(-c6ccccc6O)nnc4N)C5)ccn3)CC2)no1` [compound 293, (2S,4R)-N-((S)-1-(4-(1H-1,2,3-triazol-1-yl)phenyl)ethyl)-1-((2R)-2-(3-(2-(4-(2-((4-(3-(3-amino-6-(2-hydroxyphenyl)pyridazin-4-yl)-3,8-diazabicyclo[3.2.1]octan-8-yl)pyridin-2-yl)oxy)ethyl)piperazin-1-yl)ethoxy)isoxazol-5-yl)-3-methylbutanoyl)-4-hydroxypyrrolidine-2-carboxamide], the DC50 was in the range of 2.5 to 10 nM and the Dmax was more than 75%.
For `Cc1cnn(C)c1-c1ccc([C@H](C)NC(=O)[C@@H]2C[C@@H](O)CN2C(=O)[C@H](c2cc(OCCN3CCC(O[C@H]4C[C@H](Oc5cc(N6C7CCC6CN(c6cc(-c8ccccc8O)nnc6N)C7)ccn5)C4)CC3)no2)C(C)C)cc1` [compound 294, (2S,4R)-1-((2S)-2-(3-(2-(4-((1r,3S)-3-((4-(3-(3-amino-6-(2-hydroxyphenyl)pyridazin-4-yl)-3,8-diazabicyclo[3.2.1]octan-8-yl)pyridin-2-yl)oxy)cyclobutoxy)piperidin-1-yl)ethoxy)isoxazol-5-yl)-3-methylbutanoyl)-N-((S)-1-(4-(1,4-dimethyl-1H-pyrazol-5-yl)phenyl)ethyl)-4-hydroxypyrrolidine-2-carboxamide], in that order: 2.5 to 10 nM and more than 75%.
In the case of `Cc1cnn(C)c1-c1ccc([C@H](C)NC(=O)[C@@H]2C[C@@H](O)CN2C(=O)[C@@H](c2cc(OCCN3CCC(O[C@H]4C[C@H](Oc5cc(N6C7CCC6CN(c6cc(-c8ccccc8O)nnc6N)C7)ccn5)C4)CC3)no2)C(C)C)cc1` [compound 295, (2S,4R)-1-((2R)-2-(3-(2-(4-((1r,3R)-3-((4-(3-(3-amino-6-(2-hydroxyphenyl)pyridazin-4-yl)-3,8-diazabicyclo[3.2.1]octan-8-yl)pyridin-2-yl)oxy)cyclobutoxy)piperidin-1-yl)ethoxy)isoxazol-5-yl)-3-methylbutanoyl)-N-((S)-1-(4-(1,4-dimethyl-1H-pyrazol-5-yl)phenyl)ethyl)-4-hydroxypyrrolidine-2-carboxamide], the DC50 was less than 2.5 nM and the Dmax was more than 75%.
For `Cc1ncsc1-c1ccc([C@H](C)NC(=O)[C@@H]2C[C@@H](O)CN2C(=O)[C@@H](c2cc(OCCN3CCN(C[C@H]4C[C@H](Oc5cc(N6C7CCC6CN(c6cc(-c8ccccc8O)nnc6N)C7)ccn5)C4)C[C@@H]3C)no2)C(C)C)cn1` [compound 296, (2S,4R)-1-((2R)-2-(3-(2-((2S)-4-(((1r,3S)-3-((4-(3-(3-amino-6-(2-hydroxyphenyl)pyridazin-4-yl)-3,8-diazabicyclo[3.2.1]octan-8-yl)pyridin-2-yl)oxy)cyclobutyl)methyl)-2-methylpiperazin-1-yl)ethoxy)isoxazol-5-yl)-3-methylbutanoyl)-4-hydroxy-N-((S)-1-(6-(4-methylthiazol-5-yl)pyridin-3-yl)ethyl)pyrrolidine-2-carboxamide] the same measures were less than 2.5 nM and more than 75%.

The record behind these values is US12539292B2, “BRM targeting compounds and associated methods of use” (Arvinas Operations, Inc., priority 2018, dated 2026).
